# Patent US11465984B2, “Compound having ERK kinase inhibitory activity and use thereof” (SHANGHAI HAIHE PHARMACEUTICAL CO., LTD., priority 2017, dated 2022)
# Like-named read-outs stand apart in the source and are kept apart here.
# How the values were obtained:
# [1] = Thermodynamic solubility assay; format: physicochemical; settings: thermodynamic from solid, 37° C.
# Description: The thermodynamic solubility of the compounds of the invention was determined in this Example
# (3) Assay Protocol: Blank Vehicle with Different pH Values: • PH7.4: DPBS • PH6.8: 9900 μL HBSS+100 μL HEPS+5 μL 2N NaOH • […]: DPBS adjusted with 2N HCl to pH 2.0 Incubation: • About 3 mg of the compound was weighed, added with 500 μL of blank vehicle, and shaked at 37° C. for 24 h. Sample Treatment: • After incubation, the samples were centrifuged for 30 min, and the supernatant was transferred to a new EP tube and further centrifuged for 30 min • After centrifugation, the samples were diluted by 100 times with ACN/H2O (V/V, 1:1). • Linear concentration range from 12.5 nM to 1 mM was configured with ACN/H2O (V/V, 1:1). Biological Analysis: • All samples were mixed with water at the 1:1 ratio by volume, centrifuged at 4000 rpm for 5 min, and analyzed by LC-MS/MS. Analysis Methods:
# Chromatography Conditions: • Analysis column: Acquity BEH C18 (1.7 μm; 2.1×50 mm, Waters) • Mobile phase A: 0.1% FA in H2O • Mobile phase B: 0.1% FA in CAN/MEOH (9:1, V/V) • Gradient: as shown in the table below.
# MS/MS System • Multiple Reaction Monitoring (MRM) mode was used: […]
# [2] = system: human melanoma cell line A375; assay: In vitro cell study: proliferation of A375 cells (SRB); format: cell-based; settings: A-375, 72 h incubation, read-out: IC50 against A375 cell
# Description: The inhibitory activity of Compound P9 of the invention and the representative compounds of WO2017/114510A1 on the proliferation of human melanoma cell line A375 (IC50 value) was determined in this Example.
# • Cell: human melanoma cell line A375 (CRL-1619™, ATCC) • Detection reagent: sulforhodamine B SRB (S9012, Sigma) • Microplate: 96 well microplate (3599, Corning) • Microplate reader: full-wavelength microplate reader (SpectraMax 190, Molecular Devices) (2). Assay Protocol:
# Cells in logarithmic growth phase were seeded at appropriate density (3500/well) into 96-well microplates in the volume of 90 μL per well. After incubation in a CO2 incubator at 37° C. overnight, 10 μL of the compound at various concentrations or saline for medium control was added in triplicate and incubated for 72 h, and a blank well was set. […] The optical density (OD value) at the wavelength of 560 nm was measured using a full-wavelength microplate reader SpectraMax 190. The inhibition rate of the drug on the growth of the tumor cells was calculated according to the following formula: […]
# The IC50 values were obtained by regression with four-parameter method using the software attached to the microplate reader. […]
# [3] = Chemical stability assay in solutions with various pH values (UPLC); format: physicochemical
# Excerpt: 1. Detection Means and Conditions Used in the Chemical Stability Assay
# • Detection method: Ultra-high performance liquid chromatography (UPLC) Chromatographic Conditions: • System: Ultra-high performance liquid chromatography system including pump, automatic sample injector, detector, and column oven • Column Waters Acquity UPLC BEH C18 (2.1*50 mm, 1.7 μm) • Detector: PDA detector • Detection wavelength: 225 nm • Mobile phase: A: 0.05% trifluoroacetic acid in water • B: acetonitrile • Gradient:
# • Flow rate: 0.4 ml/min • Column temperature: 40° C. • Injecion volume: 2 μl 2. Study on the Chemical Stability of the Compounds of the Invention (1). Formulation of Solutions of Test Compound P9
# Compound P9 was formulated as solutions in different buffer systems at a concentration of 0.2 mg/ml using PEG400 as cosolvent. These solutions were used for chemical stability study. The solutions with various pH values were formulated as follows: […]
# Conditions for the chemical stability assay: the solutions of Compound P9 with various pH values were stored at 37° C. for 24 h. The content of Compound P9 was determined by HPLC at 0, 4, 8, 12, 14 and 24 h. […]
smiles,measurement,setting,value
"Cn1nccc1Nc1cc(-c2cc(F)c3c(c2)CCN3C(=O)Cc2cccnc2Cl)ccn1 [Example P9, 2-(2-chloropyridin-3-yl)-1-(7-fluoro-5-(2-((1-methyl-1H-pyrazol-5-yl)amino)pyridin-4-yl)indolin-1-yl)ethan-1-one]",solubility at 24 h,"[1]; HBSS/HEPES 10 mM/BSA 0.1% pH 6.8, pH 6.8, aqueous buffer, read-out: Maximum solubility in pH 6.8 HBSS/HEPES 10 mM/BSA 0.1%",267 ± 3 µM
same,solubility at 24 h,"[1]; PBS (DPBS) pH 2.0, pH 2, aqueous buffer, read-out: Maximum solubility in pH 2.0 PBS",2850 ± 62 µM
same,solubility at 24 h,"[1]; PBS buffer, pH 7.4, aqueous buffer, read-out: Maximum solubility in pH 7.4 PBS",544 ± 5.3 µM
same,IC50,[2],363 nM
same,Percentage (%) of the peak area of the total impurity,"[3]; solution pH 2.0, 37° C., 0 h",0.84%
same,Percentage (%) relative to the peak area of the compound at the original point,"[3]; solution pH 2.0, 37° C., 0 h",100.0%
same,Percentage (%) of the peak area of the total impurity,"[3]; solution pH 2.0, 37° C., 4 h",0.85%
same,Percentage (%) relative to the peak area of the compound at the original point,"[3]; solution pH 2.0, 37° C., 4 h",100.1%
same,Percentage (%) of the peak area of the total impurity,"[3]; solution pH 2.0, 37° C., 8 h",0.85%
same,Percentage (%) relative to the peak area of the compound at the original point,"[3]; solution pH 2.0, 37° C., 8 h",101.0%
same,Percentage (%) of the peak area of the total impurity,"[3]; solution pH 2.0, 37° C., 12 h",0.85%
same,Percentage (%) relative to the peak area of the compound at the original point,"[3]; solution pH 2.0, 37° C., 12 h",100.6%
same,Percentage (%) of the peak area of the total impurity,"[3]; solution pH 2.0, 37° C., 14 h",0.84%
same,Percentage (%) relative to the peak area of the compound at the original point,"[3]; solution pH 2.0, 37° C., 14 h",100.6%
same,Percentage (%) of the peak area of the total impurity,"[3]; solution pH 2.0, 37° C., 24 h",0.85%
same,Percentage (%) relative to the peak area of the compound at the original point,"[3]; solution pH 2.0, 37° C., 24 h",101.0%
same,Percentage (%) of the peak area of the total impurity,"[3]; solution pH 6.8, 37° C., 0 h",0.75%
same,Percentage (%) relative to the peak area of the compound at the original point,"[3]; solution pH 6.8, 37° C., 0 h",100.0%
same,Percentage (%) of the peak area of the total impurity,"[3]; solution pH 6.8, 37° C., 4 h",0.69%
same,Percentage (%) relative to the peak area of the compound at the original point,"[3]; solution pH 6.8, 37° C., 4 h",101.0%
same,Percentage (%) of the peak area of the total impurity,"[3]; solution pH 6.8, 37° C., 8 h",0.71%
same,Percentage (%) relative to the peak area of the compound at the original point,"[3]; solution pH 6.8, 37° C., 8 h",101.4%
same,Percentage (%) of the peak area of the total impurity,"[3]; solution pH 6.8, 37° C., 12 h",0.71%
same,Percentage (%) relative to the peak area of the compound at the original point,"[3]; solution pH 6.8, 37° C., 12 h",101.6%
same,Percentage (%) of the peak area of the total impurity,"[3]; solution pH 6.8, 37° C., 14 h",0.68%
same,Percentage (%) relative to the peak area of the compound at the original point,"[3]; solution pH 6.8, 37° C., 14 h",100.8%
same,Percentage (%) of the peak area of the total impurity,"[3]; solution pH 6.8, 37° C., 24 h",0.68%
same,Percentage (%) relative to the peak area of the compound at the original point,"[3]; solution pH 6.8, 37° C., 24 h",101.7%
same,Percentage (%) of the peak area of the total impurity,"[3]; solution pH 7.4, 37° C., 0 h",0.72%
same,Percentage (%) relative to the peak area of the compound at the original point,"[3]; solution pH 7.4, 37° C., 0 h",100.0%
same,Percentage (%) of the peak area of the total impurity,"[3]; solution pH 7.4, 37° C., 4 h",0.67%
same,Percentage (%) relative to the peak area of the compound at the original point,"[3]; solution pH 7.4, 37° C., 4 h",100.3%
same,Percentage (%) of the peak area of the total impurity,"[3]; solution pH 7.4, 37° C., 8 h",0.65%
same,Percentage (%) relative to the peak area of the compound at the original point,"[3]; solution pH 7.4, 37° C., 8 h",101.4%
same,Percentage (%) of the peak area of the total impurity,"[3]; solution pH 7.4, 37° C., 12 h",0.67%
same,Percentage (%) relative to the peak area of the compound at the original point,"[3]; solution pH 7.4, 37° C., 12 h",100.9%
same,Percentage (%) of the peak area of the total impurity,"[3]; solution pH 7.4, 37° C., 14 h",0.71%
same,Percentage (%) relative to the peak area of the compound at the original point,"[3]; solution pH 7.4, 37° C., 14 h",101.3%
same,Percentage (%) of the peak area of the total impurity,"[3]; solution pH 7.4, 37° C., 24 h",0.74%
same,Percentage (%) relative to the peak area of the compound at the original point,"[3]; solution pH 7.4, 37° C., 24 h",101.1%
same,chemical stability (conclusion in words),[3]; storage in solutions of various pH at 37° C. for 24 h,good chemical stability
